In patent publication US9783539B2, “Indoloquinolone compounds as anaplastic lymphoma kinase (ALK) inhibitors” (Jiangsu Ascentage Biomed Development Inc., priority 2014, dated 2017):
Values joined by “and” are separate entries in the source; they are usually repeats but may differ in a detail not shown here. Identical values can stand only once. Like-named read-outs stand apart in the source and are kept apart here. Blank lines part the entries; values can stand above or below the compound they belong to.

Columns and labels:
[1] = tested on: Kappas-299 cells containing NPM-ALK fusion protein; assay: 4-day cell viability assay (CellTiter-Glo), Kappas-299; format: cell-based; settings: inhibition of cell growth, 4 days, multiple values from independent experiments
Protocol: (§1) The effect of compounds on cell viability was determined in a 4-day proliferation assay. Cells were maintained in RPMI1640 culture medium with 10% FBS at 37° C. and an atmosphere of 5% CO2. […] Cells were seeded in 96-well plates at a density of 3,000-10,000 cells/well in 75 μl of culture medium. Compounds were serially diluted in the appropriate medium, and 75 μl of the diluted compounds were added to the appropriate wells of the cell plate. After the addition of compounds, the cells were incubated at 37° C. in an atmosphere of 5% CO2 for 4 days. Cell viability was determined using the CellTiter-Glo® Luminescent Cell Viability Assay Kit (Promega, Madison, Wis.) (for KARPAS-299 cells) or WST (2-(2-methoxy-4-nitrophenyl)-3-(4-nitrophenyl)-5-(2,4-disulfophenyl)-2H-tetrazolium, monosodium salt) Cell Counting-8 Kit (Dojindo Molecular Technologies, Inc., Rockville, Md.) (for H3122 cells) according to the manufacturers' instructions.
For CellTiter-Glo assay, 100 μl of CellTiter-Glo® Reagent was added to each well, and then the plates were incubated at room temperature for 10-20 minutes. The luminescent signal was measured using a Tecan Infinite M1000 multimode microplate reader (Tecan, Morrisville, N.C.). The readings were normalized to the DMSO-treated cells and the IC50 was calculated by nonlinear regression analysis using the GraphPad Prism 5 software.
Cells were treated for four days and cell growth was determined using a CellTiter-Glo assay.

[2] = tested on: H3122 non-small cell lung cancer cell line harboring the EML4-ALK fusion gene; assay: 4-day cell viability assay (WST), H3122; format: cell-based; settings: Homo sapiens, NCI-H3122, 96 h, 4 days, read-out: IC50 (nM) in Inhibition of Tumor Cell Growth H3122 Cell line
Protocol: as §1
For WST assay, WST-8 reagent was added to each well at a final concentration of 10% (v/v), and then the plates were incubated at 37° C. for 1-2 hours for color development. The absorbance was measured at 450 nm using a SPECTRAmax PLUS plate reader (Molecular Devices, Sunnyvale, Calif.). The readings were normalized to the DMSO-treated cells and the half maximal inhibitory concentration (IC50) was calculated by nonlinear regression analysis using the GraphPad Prism 5 software (GraphPad Software, La Jolla, Calif.).
Cells were treated for four days and cell growth was determined using a WST assay.

[3] = target: wild-type human ALK protein (cytoplasmic domain, amino acid 1058-1620, GST-fusion) (Homo sapiens, UniProt Q9UM73); assay: biochemical; settings: ALK IC50, wild-type ALK; 100 μM ATP
Sequence of wild-type human ALK protein (cytoplasmic domain, amino acid 1058-1620, GST-fusion) (Q9UM73 1058-1620): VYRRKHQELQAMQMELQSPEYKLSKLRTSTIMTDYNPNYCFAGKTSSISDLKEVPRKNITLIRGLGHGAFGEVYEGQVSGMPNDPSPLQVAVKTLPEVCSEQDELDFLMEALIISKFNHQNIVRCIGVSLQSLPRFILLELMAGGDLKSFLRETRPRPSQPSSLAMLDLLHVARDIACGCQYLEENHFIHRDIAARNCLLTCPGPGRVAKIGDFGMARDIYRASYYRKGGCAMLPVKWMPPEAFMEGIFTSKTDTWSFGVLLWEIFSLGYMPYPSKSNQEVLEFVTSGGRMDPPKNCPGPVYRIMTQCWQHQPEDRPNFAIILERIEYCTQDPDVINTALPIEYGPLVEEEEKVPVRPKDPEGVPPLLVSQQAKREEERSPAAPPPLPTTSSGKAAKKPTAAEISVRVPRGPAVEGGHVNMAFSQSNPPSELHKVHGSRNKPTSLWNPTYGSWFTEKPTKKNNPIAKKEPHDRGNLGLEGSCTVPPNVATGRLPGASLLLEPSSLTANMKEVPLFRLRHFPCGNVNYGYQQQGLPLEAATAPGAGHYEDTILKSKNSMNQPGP
Protocol: Kinase activities of all enzymes were assessed using a Lance TR-FRET assay kit from Perkin Elmer Life Sciences (Waltham, Mass.). 2.5 μL of compound solution and 5 μL of protein solution were added into a black low volume 384 well microtiter plate which was incubated for 15 minutes with gentle shaking at room temperature, followed by adding 2.5 μL of fluorescently labeled peptide substrate (Ulight-[sequence]) and ATP mixture solution. The kinase reaction was performed in 50 mM HEPES (pH 7.5) with 1 mM EGTA, 1 mM MgCl2, and 2 mM DTT, 0.01% Tween-20 added right before the assay. […] The reaction was allowed to perform for 90 minutes in dark with gentle shaking at room temperature after which 10 μL of 20 mM EDTA and 2 nM Eu-W1024 anti-phosphotyrosine antibody (PT66) mixture solution in the detection buffer from the manufacturer was added to terminate the reaction and detect the phosphorylation of the peptide substrate. Final mixture was incubated in the dark for 1 hour before the plate was read on a Tecan Infinite M-1000 multi-mode plate reader (Tecan, Durham N.C.) with an excitation wavelength of 320 nm.

[4] = Pharmacokinetic parameters in SD rats, IV and PO; design: AUC(0-t): concentration or dose not given beside the values; settings: Sprague-Dawley (SD), rat, in vivo; for bioavailability: po, read-out: Oral Bioavailability (F)
Text: The pharmacokinetic (PK) parameters in SD rats for selected compounds with intravenous (IV) and oral (PO) administrations are provided in the following table (Table 5).

[5] = intravenous, read-out: AUC0-t IV
[6] = intravenous, read-out: t1/2 IV (converted)
[7] = oral, read-out: t1/2 PO (converted)

Structure (SMILES): CC(C)Oc1cc2c(=O)c3c4ccc(C#N)cc4[nH]c3n(C(C)C)c2c(F)c1N1CCC(N2CCOCC2)CC1 [ALK-85, 4-Fluoro-2-isopropoxy-5-isopropyl-3-(4-morpholinopiperidin-1-yl)-11-oxo-6,11-dihydro-5H-indolo[2,3-b]quinoline-8-carbonitrile]
IC50 ([1]; NPM-ALK, 96 h): 66 nM | IC50 [2]: 148 ± 26 nM | IC50 [3]: 22.9 nM

Structure (SMILES): CCOc1cc2c(=O)c3c4ccc(C#N)cc4[nH]c3n(C(C)C)c2c(F)c1N1CCC(N2CCOCC2)CC1 [ALK-76, 2-Ethoxy-4-fluoro-5-isopropyl-3-(4-morpholinopiperidin-1-yl)-11-oxo-6,11-dihydro-5H-indolo[2,3-b]quinoline-8-carbonitrile]
IC50 ([1]; NPM-ALK, 96 h): 35 nM | IC50 [2]: 85 ± 11 nM | IC50 [3]: 2.5 nM

Structure (SMILES): COc1cc2c(=O)c3c4ccc(C#N)cc4[nH]c3n(C(C)C)c2c(F)c1C1CCN(C(C)C)CC1 [CJ-2225, 4-Fluoro-5-isopropyl-3-(1-isopropylpiperidin-4-yl)-2-methoxy-11-oxo-6,11-dihydro-5H-indolo[2,3-b]quinoline-8-carbonitrile]
AUC(0-t) [4, 5]: 1110 ng·h/mL | Cmax ([4]; intravenous, read-out: Cmax IV): 212 ng/mL | Tmax ([4]; intravenous, read-out: Tmax IV): 0.222 h | half-life [4, 6]: 4.54 h | AUC(0-t) ([4]; oral, read-out: AUC0-t PO): 2340 ng·h/mL | Cmax ([4]; oral, read-out: Cmax PO): 225 ng/mL | Tmax ([4]; oral, read-out: Tmax PO): 5.33 h | half-life [4, 7]: 4.31 h | bioavailability [4]: 41.7%

Structure (SMILES): COc1cc2c(=O)c3c4ccc(C#N)cc4[nH]c3n(C(C)C)c2cc1N1CCC(N2CCOCC2)CC1 [ALK-25, 5-isoPropyl-2-methoxy-3-(4-morpholinopiperidin-1-yl)-11-oxo-6,11-dihydro-5H-indolo[2,3-b]quinoline-8-carbonitrile]
IC50 ([1]; NPM-ALK, 96 h): 137 nM | IC50 [3]: 17.8 nM

Structure (SMILES): COc1cc2c(=O)c3c4ccc(C#N)cc4[nH]c3n(C(C)C)c2c(F)c1C1CCN(C2CCOCC2)CC1 [CJ-2226, 4-Fluoro-5-isopropyl-2-methoxy-11-oxo-3-(1-(tetrahydro-2H-pyran-4-yl)piperidin-4-yl)-6,11-dihydro-5H-indolo[2,3-b]quinoline-8-carbonitrile]
AUC(0-t) [4, 5]: 1000 ng·h/mL | Cmax ([4]; intravenous, read-out: Cmax IV): 296 ng/mL | Tmax ([4]; intravenous, read-out: Tmax IV): 0.083 h | half-life [4, 6]: 4.37 h | AUC(0-t) ([4]; oral, read-out: AUC0-t PO): 2370 ng·h/mL | Cmax ([4]; oral, read-out: Cmax PO): 230 ng/mL | Tmax ([4]; oral, read-out: Tmax PO): 4.67 h | half-life [4, 7]: 4.99 h | bioavailability [4]: 47.3%

Structure (SMILES): COc1cc2c(=O)c3c4ccc(C#N)cc4[nH]c3n(C(C)C)c2c(F)c1C1CCN(C2COC2)CC1 [CJ-2224, 4-Fluoro-5-isopropyl-2-methoxy-3-(1-(oxetan-3-yl)piperidin-4-yl)-11-oxo-6,11-dihydro-5H-indolo[2,3-b]quinoline-8-carbonitrile]
AUC(0-t) [4, 5]: 2340 ng·h/mL | Cmax ([4]; intravenous, read-out: Cmax IV): 959 ng/mL | Tmax ([4]; intravenous, read-out: Tmax IV): 0.083 h | half-life [4, 6]: 4.71 h | AUC(0-t) ([4]; oral, read-out: AUC0-t PO): 9640 ng·h/mL | Cmax ([4]; oral, read-out: Cmax PO): 1170 ng/mL | Tmax ([4]; oral, read-out: Tmax PO): 0.67 h | half-life [4, 7]: 3.86 h | bioavailability [4]: 81.5%

Structure (SMILES): COc1cc2c(=O)c3c4ccc(C#N)cc4[nH]c3n(C(C)C)c2c(F)c1C1CCN(C)CC1 [CJ-2212, 4-Fluoro-5-isopropyl-2-methoxy-3-(1-methylpiperidin-4-yl)-11-oxo-6,11-dihydro-5H-indolo[2,3-b]quinoline-8-carbonitrile]
AUC(0-t) [4, 5]: 574 ng·h/mL | Cmax ([4]; intravenous, read-out: Cmax IV): 169 ng/mL | Tmax ([4]; intravenous, read-out: Tmax IV): 0.083 h | half-life [4, 6]: 4.78 h | AUC(0-t) ([4]; oral, read-out: AUC0-t PO): 2060 ng·h/mL | Cmax ([4]; oral, read-out: Cmax PO): 208 ng/mL | Tmax ([4]; oral, read-out: Tmax PO): 5.33 h | half-life [4, 7]: 4.08 h | bioavailability [4]: 70.6%

Structure (SMILES): CCc1cc2c(=O)c3c4ccc(C#N)cc4[nH]c3n(C(C)C)c2cc1C1CCNCC1 [CJ-2204, 2-Ethyl-5-isopropyl-11-oxo-3-(piperidin-4-yl)-6,11-dihydro-5H-indolo[2,3-b]quinoline-8-carbonitrile]
IC50 ([1]; NPM-ALK, 96 h): 768 nM | IC50 [3]: 0.26 nM

Structure (SMILES): COc1cc2c(=O)c3c4ccc(C#N)cc4[nH]c3n(C)c2cc1N1CCC(N2CCOCC2)CC1 [ALK-22, 2-Methoxy-5-methyl-3-(4-morpholinopiperidin-1-yl)-11-oxo-6,11-dihydro-5H-indolo[2,3-b]quinoline-8-carbonitrile]
IC50 ([1]; NPM-ALK, 96 h): 90.3 nM | IC50 [3]: 661 nM

The next lines start with results.

IC50 [3]: 1.9 nM and 2.8 nM
Structure (SMILES): CCc1cc2c(=O)c3c4ccc(C#N)cc4[nH]c3n(CC)c2cc1N1CCN(C)CC1 [ALK-49, 2,5-Diethyl-3-(4-methylpiperazin-1-yl)-11-oxo-6,11-dihydro-5H-indolo[2,3-b]quinoline-8-carbonitrile]
IC50 ([1]; NPM-ALK, 96 h): 317 nM | IC50 [1]: 546 nM

IC50 [3]: 28.5 nM
Structure (SMILES): COc1cc2c(=O)c3c4ccc(C#N)cc4[nH]c3n(CC(C)(C)C)c2cc1N1CCN(C)CC1 [ALK-43, 2-Methoxy-3-(4-methylpiperazin-1-yl)-5-neopentyl-11-oxo-6,11-dihydro-5H-indolo[2,3-b]quinoline-8-carbonitrile]
IC50 ([1]; NPM-ALK, 96 h): 266 nM | IC50 [1]: 261 nM

IC50 [3]: 1.8 nM and 1.5 nM
Structure (SMILES): C=Cc1cc2c(=O)c3c4ccc(C#N)cc4[nH]c3n(C(C)C)c2cc1N1CCN(C)CC1 [ALK-46, 5-isoPropyl-3-(4-methylpiperazin-1-yl)-11-oxo-2-vinyl-6,11-dihydro-5H-indolo[2,3-b]quinoline-8-carbonitrile]
IC50 ([1]; NPM-ALK, 96 h): 60 nM | IC50 [1]: 102 nM

IC50 [3]: 1.6 nM
Structure (SMILES): CC(C)n1c2cc(N3CCN(C)CC3)c(OC(F)F)cc2c(=O)c2c3ccc(C#N)cc3[nH]c21 [ALK-59, 2-(Difluoromethoxy)-5-isopropyl-3-(4-methylpiperazin-1-yl)-11-oxo-6,11-dihydro-5H-indolo[2,3-b]quinoline-8-carbonitrile]
IC50 ([1]; NPM-ALK, 96 h): 447 nM

IC50 [3]: 20.5 nM
Structure (SMILES): C=C(C)c1cc2c(=O)c3c4ccc(C#N)cc4[nH]c3n(C(C)C)c2cc1N1CCN(C)CC1 [ALK-51, 5-isoPropyl-3-(4-methylpiperazin-1-yl)-11-oxo-2-(prop-1-en-2-yl)-6,11-dihydro-5H-indolo[2,3-b]quinoline-8-carbonitrile]
IC50 ([1]; NPM-ALK, 96 h): 70 nM | IC50 [1]: 99 nM

IC50 [3]: 309 nM
Structure (SMILES): COc1cc2c(=O)c3c4ccc(C#N)cc4[nH]c3n(C)c2cc1N1CCN(C)CC1 [ALK-23, 2-Methoxy-5-methyl-3-(4-methylpiperazin-1-yl)-11-oxo-6,11-dihydro-5H-indolo[2,3-b]quinoline-8-carbonitrile]

IC50 [3]: 2.3 nM
Structure (SMILES): CCc1cc2c(=O)c3c4ccc(C#N)cc4[nH]c3n(C(C)C)c2cc1N1CCOCC1 [ALK-82, 2-Ethyl-5-isopropyl-3-morpholino-11-oxo-6,11-dihydro-5H-indolo[2,3-b]quinoline-8-carbonitrile]
IC50 ([1]; NPM-ALK, 96 h): 46 nM

IC50 [3]: 0.1 nM
Structure (SMILES): CCc1cc2c(=O)c3c4ccc(C#N)cc4[nH]c3n(C(C)C)c2cc1N1CCNCC1 [ALK-81, 2-Ethyl-5-isopropyl-11-oxo-3-(piperazin-1-yl)-6,11-dihydro-5H-indolo[2,3-b]quinoline-8-carbonitrile]
IC50 ([1]; NPM-ALK, 96 h): 440 nM

IC50 [3]: 1.8 nM and 5.1 nM
Structure (SMILES): CCc1cc2c(=O)c3c4ccc(C#N)cc4[nH]c3n(C3CCC3)c2cc1N1CCN(C)CC1 [ALK-45, 5-cyclobutyl-2-ethyl-3-(4-methylpiperazin-1-yl)-11-oxo-6,11-dihydro-5H-indolo[2,3-b]quinoline-8-carbonitrile]
IC50 ([1]; NPM-ALK, 96 h): 35 nM | IC50 [1]: 62 nM

IC50 [3]: 15.1 nM
Structure (SMILES): CCc1cc2c(=O)c3c4ccc(C#N)cc4[nH]c3n(C3CCCC3)c2cc1N1CCN(C)CC1 [ALK-48, 5-Cyclopentyl-2-ethyl-3-(4-methylpiperazin-1-yl)-11-oxo-6,11-dihydro-5H-indolo[2,3-b]quinoline-8-carbonitrile]
IC50 ([1]; NPM-ALK, 96 h): 70 nM | IC50 [1]: 84 nM

IC50 [3]: 29.7 nM
Structure (SMILES): CCC(CC)n1c2cc(N3CCN(C)CC3)c(OC)cc2c(=O)c2c3ccc(C#N)cc3[nH]c21 [ALK-40, 2-Methoxy-3-(4-methylpiperazin-1-yl)-11-oxo-5-(pentan-3-yl)-6,11-dihydro-5H-indolo[2,3-b]quinoline-8-carbonitrile]
IC50 ([1]; NPM-ALK, 96 h): 415 nM

IC50 [3]: 24.7 nM
Structure (SMILES): CCOc1cc2c(=O)c3c4ccc(C#N)cc4[nH]c3n(C3CCCC3)c2cc1N1CCN(C)CC1 [ALK-54, 5-Cyclopentyl-2-ethoxy-3-(4-methylpiperazin-1-yl)-11-oxo-6,11-dihydro-5H-indolo[2,3-b]quinoline-8-carbonitrile]
IC50 ([1]; NPM-ALK, 96 h): 63 nM
